Measured values from DBAASP.
Converted amounts (≈) assume the structure as drawn. “And” between values parts separate entries of the source, which are not always exact repeats. Identical values can stand only once.

Tests used:
Assay in all cases: ≥ marks a high value that may be exact or a test limit, other limits are often not marked, values filed in µg/mL are converted to µM
[1] = tested on: Staphylococcus aureus ATCC 9144
[2] = tested on: Staphylococcus aureus E4049
[3] = tested on: Staphylococcus aureus 5118
[4] = tested on: Staphylococcus aureus ATCC 43300
Microsporum canis = tested on: Microsporum canis
[5] = tested on: Staphylococcus pseudintermedius
[6] = tested on: Escherichia coli NCTC 10418
Staphylococcus aureus = tested on: Staphylococcus aureus
[7] = tested on: Staphylococcus aureus NCTC 10788
Staphylococcus sciuri = tested on: Staphylococcus sciuri
[8] = tested on: Trichophyton mentagrophytes
[9] = tested on: Microsporum canis MW768151
[10] = tested on: Staphylococcus aureus NCTC 12493
Proteus mirabilis = tested on: Proteus mirabilis
[11] = tested on: Pseudomonas aeruginosa ATCC 27853
[12] = tested on: Staphylococcus pseudintermedius MW767056
Staphylococcus simulans = tested on: Staphylococcus simulans
[13] = tested on: Staphylococcus haemolyticus
[14] = tested on: Staphylococcus cohnii MW767053
[15] = tested on: Escherichia coli DH5alpha
[16] = tested on: Staphylococcus epidermidis ATCC 12228
Micrococcus luteus A270 = tested on: Micrococcus luteus A270
Escherichia coli D31 = tested on: Escherichia coli D31
[17] = tested on: Salmonella enterica subsp. arizonae ATCC 13314
[18] = tested on: Staphylococcus aureus ATCC 29213
Escherichia coli 214 = tested on: Escherichia coli 214
[19] = tested on: Enterococcus faecalis ATCC 29212
[20] = tested on: Escherichia coli BL21(DE3)
Escherichia coli C600 = tested on: Escherichia coli C600
Escherichia coli 1057 = tested on: Escherichia coli 1057
Escherichia coli = tested on: Escherichia coli
Ralstonia solanacearum = tested on: Ralstonia solanacearum
Bacillus thuringiensis = tested on: Bacillus thuringiensis
Pseudomonas tolaasii = tested on: Pseudomonas tolaasii
[21] = tested on: Enterococcus faecium KCCM 12118
[22] = tested on: Bacillus subtilis KCTC 3068
[23] = tested on: Staphylococcus aureus KCCM 40510
[24] = tested on: Enterococcus faecalis ATCC 51575
[25] = tested on: Salmonella typhimurium KCTC 1926
[26] = tested on: Staphylococcus aureus KCTC 1621
[27] = tested on: Pseudomonas aeruginosa KCTC 1637
[28] = tested on: Enterococcus faecium ATCC 51559
[29] = tested on: Enterococcus faecalis KCCM 29212
[30] = tested on: Staphylococcus epidermidis KCTC 1917
[31] = tested on: Escherichia coli KCTC 1682
Pseudomonas aeruginosa 1 = tested on: Pseudomonas aeruginosa 1
Escherichia coli 1 = tested on: Escherichia coli 1
Pseudomonas aeruginosa = tested on: Pseudomonas aeruginosa

For CC[C@H](C)[C@H](NC(=O)[C@H](CC(C)C)NC(=O)CNC(=O)[C@H](CCSC)NC(=O)[C@@H](NC(=O)[C@H](CC(C)C)NC(=O)[C@H](CCC(N)=O)NC(=O)CNC(=O)[C@H](Cc1ccccc1)NC(=O)[C@@H](NC(=O)[C@@H](N)CO)C(C)C)C(C)C)C(=O)N[C@@H](CC(C)C)C(=O)N[C@@H](CO)C(=O)N[C@@H](CO)C(=O)N[C@H](C(=O)N[C@@H](Cc1ccccc1)C(=O)N[C@@H](Cc1ccc(O)cc1)C(=O)N[C@@H](CC(N)=O)C(=O)N[C@@H](CC(=O)O)C(=O)N[C@@H](CC(=O)O)C(=O)O)C(C)C [SVFGQLVMGLILSSVFYNDD], the MIC [1] was 15.9 µM (≈ 35 µg/mL), the MIC [2] was ≥ 250 µM and the MIC [3] was 1.81 µM (≈ 4 µg/mL).
In the case of CC[C@H](C)[C@H](NC(=O)CNC(=O)[C@H](CO)NC(=O)[C@H](CC(C)C)NC(=O)[C@H](CC(C)C)NC(=O)CN)C(=O)N[C@@H](CC(C)C)C(=O)NCC(=O)N[C@@H](C)C(=O)NCC(=O)N[C@@H](CCCCN)C(=O)N[C@@H](CCCCN)C(=O)N[C@H](C(=O)N[C@H](C(=O)N[C@@H](Cc1ccccc1)C(N)=O)C(C)C)[C@@H](C)CC [GLLSGILGAGKKIVF], the MIC [4] is reported as 0.998 µM (≈ 1.47 µg/mL), the MIC (Microsporum canis) is reported as 1.92 µM (≈ 2.83 µg/mL) and the MIC [5] is reported as ≥ 61.5 µM. The MIC [6] was 7.99 µM (≈ 11.8 µg/mL), the MIC (Staphylococcus aureus) was 0.998 µM (≈ 1.47 µg/mL) and the MIC [7] was 2 µM (≈ 2.94 µg/mL). The MIC (Staphylococcus sciuri) was ≥ 174 µM, the MIC [8] was 1.36 µM (≈ 2 µg/mL) and the MIC [9] was 0.679 µM (≈ 0.999 µg/mL). The MIC [10] was 4 µM (≈ 5.89 µg/mL), the MIC (Proteus mirabilis) was ≥ 43.5 µM and the MIC [11] was 2 µM (≈ 2.94 µg/mL). The MIC [12] was ≥ 174 µM, the MIC (Staphylococcus simulans) was 10.9 µM (≈ 16 µg/mL) and the MIC [13] was ≥ 43.5 µM. For the same compound, the MIC [14] was ≥ 86.9 µM.
CC[C@H](C)[C@H](NC(=O)[C@H](CCC(N)=O)NC(=O)[C@@H](NC(=O)CNC(=O)[C@@H](NC(=O)[C@H](CC(C)C)NC(=O)[C@H](CC(C)C)NC(=O)[C@H](Cc1ccccc1)NC(=O)[C@@H]1CCCN1C(=O)[C@@H](N)[C@@H](C)O)C(C)C)[C@@H](C)O)C(=O)N[C@@H](CC(=O)O)C(=O)N[C@@H](CC(C)C)C(=O)N[C@@H](CCCN=C(N)N)C(=O)O [TPFLLVGTQIDLR] was tested, and the MIC [15] was 2.4 µM (≈ 3.53 µg/mL), the MIC [16] was 1.2 µM (≈ 1.77 µg/mL) and the MIC (Micrococcus luteus A270) was 4.7 µM (≈ 6.92 µg/mL). For the same compound, the MIC (Escherichia coli D31) was 2.4 µM (≈ 3.53 µg/mL), the MIC [17] was 2.4 µM (≈ 3.53 µg/mL) and the MIC [11] was 4.7 µM (≈ 6.92 µg/mL). It also gave an MIC [18] of 1.2 µM (≈ 1.77 µg/mL).
For CC(C)C[C@H](NC(=O)[C@H](CCCN=C(N)N)NC(=O)[C@@H](N)CCCN=C(N)N)C(=O)N[C@@H](CCCN=C(N)N)C(=O)N1CCC[C@H]1C(=O)N[C@@H](CCCN=C(N)N)C(=O)N[C@@H](CCCN=C(N)N)C(=O)N1CCC[C@H]1C(=O)N[C@@H](CCCN=C(N)N)C(=O)N[C@@H](CC(C)C)C(=O)N1CCC[C@H]1C(=O)N[C@@H](CCCN=C(N)N)C(=O)N1CCC[C@H]1C(=O)N[C@@H](CCCN=C(N)N)C(=O)N1CCC[C@H]1C(=O)N[C@@H](CCCN=C(N)N)C(=O)N1CCC[C@H]1C(=O)N[C@@H](CCCN=C(N)N)C(=O)N1CCC[C@H]1C(=O)N[C@@H](CCCN=C(N)N)C(=O)N1CCC[C@H]1C(=O)N[C@@H](CCCN=C(N)N)C(=O)O [RRLRPRRPRLPRPRPRPRPRPR], the MIC (Escherichia coli 214) was ≥ 64 µM, the MIC [19] was > 32 µM and the MIC [20] was 8 µM (≈ 23.2 µg/mL). For the same compound, the MIC (Escherichia coli C600) was 2 µM and 4 µM and the MIC (Escherichia coli 1057) was 10 µM and 8 µM.
CC[C@H](C)[C@H](NC(=O)[C@H](CCCCN)NC(=O)CNC(=O)[C@H](CC(C)C)NC(=O)[C@@H](NC(=O)[C@H](CCCCN)NC(=O)[C@H](CCCCN)NC(=O)[C@H](CC(C)C)NC(=O)[C@H](CC(N)=O)NC(=O)[C@@H](N)CC(C)C)[C@@H](C)CC)C(=O)NCC(=O)N[C@H](C(=O)N[C@@H](CCSC)C(=O)N[C@@H](CC(C)C)C(=O)N[C@@H](CO)C(=O)N[C@@H](Cc1cnc[nH]1)C(=O)N[C@@H](CC(C)C)C(=O)N[C@@H](CC(N)=O)C(=O)O)C(C)C [LNLKKILGKIGVMLSHLN] showed an MIC (Escherichia coli) of 0.402 µM (≈ 0.8 µg/mL), an MIC (Ralstonia solanacearum) of 1.05 µM (≈ 2.1 µg/mL) and an MIC (Bacillus thuringiensis) of 1.46 µM (≈ 2.9 µg/mL). For the same compound, the MIC (Pseudomonas tolaasii) was 1.36 µM (≈ 2.7 µg/mL).
In the case of CC[C@H](C)[C@H](NC(=O)[C@H](CCCN=C(N)N)NC(=O)[C@H](CC(C)C)NC(=O)[C@@H](N)CC(C)C)C(=O)N[C@@H](C)C(=O)N[C@@H](CC(C)C)C(=O)N[C@@H](CCCN=C(N)N)C(=O)N[C@@H](CCCCN)C(=O)N[C@@H](CCCCN)C(N)=O [LLRIALRKK], the MIC [21] is reported as 28.8 µM (≈ 32 µg/mL), the MIC [22] is reported as 14.4 µM (≈ 16 µg/mL) and the MIC [23] is reported as 14.4 µM (≈ 16 µg/mL). For the same compound, the MIC [24] was ≥ 57.6 µM, the MIC [25] was 7.2 µM (≈ 7.99 µg/mL) and the MIC [26] was 28.8 µM (≈ 32 µg/mL). For the same compound, the MIC [27] was 7.2 µM (≈ 7.99 µg/mL), the MIC [28] was 7.2 µM (≈ 7.99 µg/mL) and the MIC [29] was 28.8 µM (≈ 32 µg/mL). It also gave an MIC [30] of 3.6 µM (≈ 4 µg/mL) and an MIC [31] of 3.6 µM (≈ 4 µg/mL).
CC[C@H](C)[C@H](NC(=O)[C@@H](NC(=O)[C@@H]1CCCN1C(=O)[C@H](CO)NC(=O)[C@@H]1CSSC[C@H](NC(=O)[C@H](CCCCN)NC(=O)[C@H](CCCCN)NC(=O)CNC(=O)CNC(=O)CNC(=O)CN)C(=O)N[C@@H](CCCCN)C(=O)N[C@@H](CCCCN)C(=O)N[C@@H](CC(C)C)C(=O)N[C@@H](Cc2ccccc2)C(=O)N[C@@H](CCCCN)C(=O)N[C@@H](CCCCN)C(=O)N1)C(C)C)C(=O)N1CCC[C@H]1C(=O)N[C@@H](CC(C)C)C(=O)N[C@@H](CC(C)C)C(=O)N[C@@H](Cc1cnc[nH]1)C(=O)N[C@@H](CC(C)C)C(=O)NCC(=O)O [GGGGKKCKKLFKKCSPVIPLLHLG] was tested, and the MIC (Escherichia coli) was 1.3 µM (≈ 3.26 µg/mL), the MIC (Pseudomonas aeruginosa 1) was 27 µM (≈ 67.7 µg/mL) and the MIC (Escherichia coli 1) was 2.7 µM (≈ 6.77 µg/mL). The MIC (Pseudomonas aeruginosa) was 16 µM (≈ 40.1 µg/mL).
